Like-named read-outs stand apart in the source and are kept apart here. Bridge positions count the residues as written; N and C are the ends. Peptide text beside a SMILES is read from it.
Columns and labels:
[1] = disulfide bond, air (O2), (NH4)2CO3 buffer pH 8.4, water, 168.0 h
Bovine trypsin = target: T1, Bovine trypsin (Bos taurus, UniProt P00760); experiment: Trypsin enzyme inhibition assay with chromogenic substrate Boc-QAR-pNA; assay type: biochemical; conditions: pH 7.6
T1 construct: purchased Sigma-Aldrich
T1 sequence (P00760 24-246): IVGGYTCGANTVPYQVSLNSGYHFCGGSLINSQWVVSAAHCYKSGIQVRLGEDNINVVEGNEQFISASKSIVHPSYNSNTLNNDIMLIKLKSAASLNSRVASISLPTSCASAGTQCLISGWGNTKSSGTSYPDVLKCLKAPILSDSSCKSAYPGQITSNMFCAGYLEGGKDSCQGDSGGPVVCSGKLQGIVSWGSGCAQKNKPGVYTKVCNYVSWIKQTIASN
Procedure: (§1) Recombinant production, autocatalytic activation and purification of matriptase were conducted as previously described. Bovine trypsin was purchased from Sigma-Aldrich. Active-site titration and determination of Michaelis-Menten constants KM for the chromogenic substrate Boc-QAR-pNA was performed as reported earlier.
All experiments were performed in triplicate. Active-site titrated matriptase (final concentration: [E]=0.9 nM) or trypsin (final concentration: [E]=0.5 nM) were incubated with the respective inhibitor in different concentrations [I] at pH 7.6 or 8.5 for 30 min. Then, the chromogenic substrate Boc-QAR-pNA (final concentration: [S]=250 μM) was added. The residual proteolytic activity (v/v0) was determined by monitoring the absorption of the corresponding samples in 96-well plates (NUNC, round bottom, clear) at 405 nm in 60 sec intervals over 30 min at RT using the Tecan GENios microplate reader. Slopes of the initial reaction velocities (steady-state) were calculated and normalized to the data of the uninhibited enzymatic hydrolysis of Boc-QAR-pNA. The determined v/v0 values were plotted against the concentration of the inhibitor. The resulting dose-response curves were fitted either by equation 1 or in case of tight-binding inhibition (trypsin: 42; matriptase: 43 at pH 8.5, 44 at pH 7.6 and 8.5) by equation 2 through non-linear regression.
(§2) Errors were calculated through propagation of errors (compare Tischler et al.).[17]

matriptase = target: T2, matriptase (Homo sapiens, UniProt Q9Y5Y6); experiment: Matriptase enzyme inhibition assay with chromogenic substrate Boc-QAR-pNA; assay type: biochemical; conditions: for matriptase affinity / inhibitor potency in words: enzyme inhibition assays, comparator as worded; for Relative Activity: ratio Ki of compound / Ki of SFTI-1[1,14]; for Sum of Increment Contributions: sum of ΔBG differences of the single modifications
T2 construct: made in house
T2 sequence (Q9Y5Y6 615-855 limits assumed): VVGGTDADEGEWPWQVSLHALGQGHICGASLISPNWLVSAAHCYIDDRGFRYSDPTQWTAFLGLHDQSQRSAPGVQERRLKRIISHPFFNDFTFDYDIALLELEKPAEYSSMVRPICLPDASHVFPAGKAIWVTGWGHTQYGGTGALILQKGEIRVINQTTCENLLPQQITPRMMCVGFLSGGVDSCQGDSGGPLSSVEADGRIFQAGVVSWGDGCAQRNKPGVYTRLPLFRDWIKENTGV
Procedure: as §1
All experiments were performed in triplicate. […] Slopes of the initial reaction velocities (steady-state) were calculated and normalized to the data of the uninhibited enzymatic hydrolysis of Boc-QAR-pNA. The determined v/v0 values were plotted against the concentration of the inhibitor.
as §2

SMILES | Ki (Bovine trypsin) [nM] | matriptase affinity / inhibitor potency in words (matriptase; pH 7.6) | ΔBG(x)-ΔBG(SFTI-1[1,14]) (matriptase; matriptase, pH 7.6 (Table 2)) [kJ/mol] | Ki (matriptase; pH 7.6 (Table 2)) [nM] | Ki (matriptase; pH 8.5 (values in brackets)) [nM] | Relative Activity (matriptase; matriptase, pH 7.6 (Table 2)) | Sum of Increment Contributions (matriptase; matriptase, pH 7.6) [kJ/mol] | also measured
CC[C@H](C)[C@@H]1NC(=O)[C@H](CO)NC(=O)[C@H](CCCCN)NC(=O)[C@H]([C@@H](C)O)NC(=O)[C@@H](NC(=O)[C@H](CCCNC(=N)N)NC(=O)CN)CSSC[C@@H](C(=O)N[C@@H](Cc2ccccc2)C(=O)N2CCC[C@H]2C(=O)N[C@@H](CC(=O)O)C(=O)O)NC(=O)[C@H](CCCCN)NC(=O)[C@@H]2CCCN2C(=O)[C@@H]2CCCN2C1=O | – | – | – | – | – | – | – | ring closure, yield of all isomers ([1]; from CC[C@H](C)[C@H](NC(=O)[C@H](CO)NC(=O)[C@H](CCCCN)NC(=O)[C@@H](NC(=O)[C@H](CS)NC(=O)[C@H](CCCNC(=N)N)NC(=O)CN)[C@@H](C)O)C(=O)N1CCC[C@H]1C(=O)N1CCC[C@H]1C(=O)N[C@@H](CCCCN)C(=O)N[C@@H](CS)C(=O)N[C@@H](Cc1ccccc1)C(=O)N1CCC[C@H]1C(=O)N[C@@H](CC(=O)O)C(=O)O, […], 29 steps): 3.9%
CC[C@H](C)[C@@H]1NC(=O)[C@H](CO)NC(=O)[C@H](CCCCN)NC(=O)[C@H]([C@@H](C)O)NC(=O)[C@@H](NC(=O)[C@H](CCCNC(=N)N)NC(=O)CN)CSSC[C@@H](C(=O)N[C@@H](Cc2c[nH]cn2)C(=O)N2CCC[C@H]2C(=O)N[C@@H](CC(=O)O)C(=O)O)NC(=O)[C@H](CCCNC(=N)N)NC(=O)[C@@H]2CCCN2C(=O)[C@@H]2CCCN2C1=O [Compound 43] (H-GRCTKSIPPRCHPD-OH; disulfide 3-11; N-terminus assumed) | 11.2 ± 2 | further increased matriptase affinity compared to SFTI-1[1,14] derivatives 9, 18, and 22 | 10.3 ± 0.4 | 11 | 1.1 | 0.016 | 9.6 ± 0.6 | sum of individual favorable contributions to ΔBG (matriptase; contributions of compounds 18 and 22): 9.6 ± 0.6 kJ/mol; difference of the free energies of binding/dissociation ΔBG between compound and SFTI-1[1,14] (matriptase; matriptase, pH 7.6): 10.3 ± 0.4 kJ/mol
CC[C@H](C)[C@@H]1NC(=O)[C@H](CO)NC(=O)[C@H](CCCCN)NC(=O)[C@H]([C@@H](C)O)NC(=O)[C@@H](NC(=O)[C@H](CCCNC(=N)N)NC(=O)CN)CSSC[C@@H](C(=O)N[C@@H](Cc2ccccc2)C(=O)N2CCC[C@H]2C(=O)N[C@@H](CC(=O)O)C(=O)O)NC(=O)[C@H](Cn2cc(CN)nn2)NC(=O)[C@@H]2CCCN2C(=O)[C@@H]2CCCN2C1=O | – | – | – | – | – | – | – | ring closure, yield of all isomers ([1]; from CC[C@H](C)[C@H](NC(=O)[C@H](CO)NC(=O)[C@H](CCCCN)NC(=O)[C@@H](NC(=O)[C@H](CS)NC(=O)[C@H](CCCNC(=N)N)NC(=O)CN)[C@@H](C)O)C(=O)N1CCC[C@H]1C(=O)N1CCC[C@H]1C(=O)N[C@@H](Cn1cc(CN)nn1)C(=O)N[C@@H](CS)C(=O)N[C@@H](Cc1ccccc1)C(=O)N1CCC[C@H]1C(=O)N[C@@H](CC(=O)O)C(=O)O, 0.63 mM, 22 steps): 21.2%
CC[C@H](C)[C@@H]1NC(=O)[C@H](CO)NC(=O)[C@H](CCCCN)NC(=O)[C@H]([C@@H](C)O)NC(=O)[C@@H](NC(=O)[C@H](CCCNC(=N)N)NC(=O)CN)CSSC[C@@H](C(=O)N[C@@H](Cc2c[nH]cn2)C(N)=O)NC(=O)[C@H](CCCNC(=N)N)NC(=O)[C@@H]2CCCN2C(=O)[C@@H]2CCCN2C1=O [Compound 44] (H-GRCTKSIPPRCH-NH2; disulfide 3-11; N-terminus assumed) | 38 ± 11.1 | – | 11.7 ± 0.6 | 6.2 ± 1.2 | 2.3 ± 0.8 | 0.009 | – | selectivity towards matriptase over trypsin (matriptase; pH 7.6): 6 fold
CC[C@H](C)[C@@H]1NC(=O)[C@H](CO)NC(=O)[C@H](CCCCN)NC(=O)[C@H]([C@@H](C)O)NC(=O)[C@@H](NC(=O)[C@H](CCCNC(=N)N)NC(=O)CN)CSSC[C@@H](C(=O)N[C@@H](Cc2c[nH]cn2)C(=O)N2CCC[C@H]2C(=O)N[C@@H](CC(=O)O)C(=O)O)NC(=O)[C@H](Cn2cc(CN)nn2)NC(=O)[C@@H]2CCCN2C(=O)[C@@H]2CCCN2C1=O [Compound 42] | 9.2 ± 2.1 | further increased matriptase affinity compared to SFTI-1[1,14] derivatives 9, 18, and 22 | 5.1 ± 0.4 | 89.5 ± 11.1 | – | 0.13 | 6.9 ± 0.6 | ring closure, yield of all isomers ([1]; from CC[C@H](C)[C@H](NC(=O)[C@H](CO)NC(=O)[C@H](CCCCN)NC(=O)[C@@H](NC(=O)[C@H](CS)NC(=O)[C@H](CCCNC(=N)N)NC(=O)CN)[C@@H](C)O)C(=O)N1CCC[C@H]1C(=O)N1CCC[C@H]1C(=O)N[C@@H](Cn1cc(CN)nn1)C(=O)N[C@@H](CS)C(=O)N[C@@H](Cc1c[nH]cn1)C(=O)N1CCC[C@H]1C(=O)N[C@@H](CC(=O)O)C(=O)O, 0.63 mM, 30 steps): 1.2%
CC[C@H](C)[C@@H]1NC(=O)[C@@H]2CCCN2C(=O)[C@@H]2CCCN2C(=O)[C@H](Cn2cc(CN)nn2)NC(=O)[C@H](CO)NC(=O)[C@H](CCCCN)NC(=O)[C@H]([C@@H](C)O)NC(=O)[C@@H](NC(=O)[C@H](CCCNC(=N)N)NC(=O)CN)CSSC[C@@H](C(=O)N[C@@H](Cc2ccccc2)C(=O)N2CCC[C@H]2C(=O)N[C@@H](CC(=O)O)C(=O)O)NC1=O | – | – | – | – | – | – | – | ring closure, yield of all isomers ([1]; from CC[C@H](C)[C@H](NC(=O)[C@@H]1CCCN1C(=O)[C@@H]1CCCN1C(=O)[C@H](Cn1cc(CN)nn1)NC(=O)[C@H](CO)NC(=O)[C@H](CCCCN)NC(=O)[C@@H](NC(=O)[C@H](CS)NC(=O)[C@H](CCCNC(=N)N)NC(=O)CN)[C@@H](C)O)C(=O)N[C@@H](CS)C(=O)N[C@@H](Cc1ccccc1)C(=O)N1CCC[C@H]1C(=O)N[C@@H](CC(=O)O)C(=O)O, 0.63 mM, 4 steps): 17%
